How the values were obtained:
[1] = test system: HSV-1; test: Plaque assay of supernatants from HSV-1 infected HCE cells; type: cell-based, HSV-1 (KOS strain); details: MOI 0.1, 10 μM, vs controls
Method: All cells were cultured at 37° C. and 5% CO2, and supplemented with 100 U/ml penicillin and 100 μg/ml streptomycin. Human corneal epithelial cells immortalized with hTERT (hTCEpi; Bahassi et al., 2008, Oncogene 27:3977-3985) were grown in complete KGM-2 medium. Human corneal epithelial cells immortalized with SV40 large T antigen (HCE; Araski-Sasaki et al., 1995, Invest. Ophthalmol. Visual Sci. 36:614-621), as well as African green monkey kidney fibroblasts (CV-1; Jensen et al., 1964, Proc. Natl. Acad. Sci. USA 52:53-59), were grown in DMEM medium supplemented with 10% FBS. KOS strain (Smith, Proc. Soc. Exp. Biol. Med. Soc. Exp. Biol. Med. 115:814-816) of HSV-1 was used in all infections. All viral stocks were titered on CV-1 monolayers.
Cells were grown in 6-well plates and used in experiments at […] confluence. Drug treatments were administered 45 min prior to infection and continued for the entire duration of each experiment. Unless indicated otherwise, Chk2 inhibitor II (>98% purity by HPLC) was used at 10 μM final concentration, and phosphonoacetic acid (PAA) at 400 μg/ml (both from Sigma-Aldrich, St. Louis, Mo.). Chk2 inhibitor II was dissolved in DMSO such that the final concentration of DMSO in both Chk2 inhibitor II and mock treatment was 0.1%. […]

[2] = test system: HSV-1; test: Western blot of viral proteins in HSV-1 infected hTCEpi cells; type: cell-based, HSV-1 (KOS strain); details: MOI 0.1, 10 μM, 16 hpi
Method: The following strains of HSV-1 were used: KOS, ICPO-null, HFEM, and tsB7. Subconfluent monolayers of cells were grown in six-well plates. Drug treatments were administered 45 minutes prior to infection and continued for the entire duration of each experiment. Unless indicated otherwise, KU-55933 (Batch No. 5, 99.7% purity; Tocris Bioscience, Bristol, UK) was used at 10 μM final concentration, phosphonoacetic acid (PAA) at 400 μg/mL (Sigma-Aldrich, St. Louis, Mo.), and acyclovir at 50 μg/mL (Sigma-Aldrich). KU-55933 was dissolved in dimethyl sulfoxide (DMSO), and the final concentration of DMSO in both KU-55933 and mock treatment in the in vitro and the ex vivo experiments was 0.1%.
Standard protocol was followed for Western blot analysis. Cell lysates were collected in 200 μL Laemmli buffer, vortexed, and boiled at 95° C. for 5 minutes. Protein concentrations were measured by bicinchoninic acid (BCA) assay. SDS-PAGE was followed by transfer onto a polyvinylidene difluoride (PVDF) membrane, which was then blocked in 5% BSA. […]

[3] = test system: HSV-1; test: HSV-1 replication (relative genome level) in normal and cancer cell lines; type: cell-based; details: KU-55933 10 μM
Method: All cells were cultured at 37° C. and 5% CO2, and supplemented with 100 U/ml penicillin and 100 μg/ml streptomycin. hTCEpi human corneal epithelial cells were cultured in KGM-2 (Lonza, Basel, Switzerland). HCE human corneal epithelial cells were cultured in DMEM/F-12 supplemented with 10% FBS. EPC2 human esophageal epithelial cells were cultured in KSFM (Carlsbad, Calif.). OKF6 human oral epithelial cells were cultured in KSFM. E5 cells, which are CV-1 cells stably expressing HSV-1 ICP4 protein, were cultured in DMEM supplemented with 10% FBS. HEK293 human embryonic kidney epithelial cells, HeLa human cervical adenocarcinoma cells, U2OS human osteosarcoma cells, H1299 human lung carcinoma cells, and SH-SY5Y human neuroblastoma cells were all obtained from American Type Culture Collection and cultured in DMEM supplemented with 10% FBS.
Total DNA was isolated from infected cells using the DNeasy Blood & Tissue Kit (QIAGEN, Hilden, Germany). Real time quantitative PCR was performed with SYBR Green (Bio-Rad, Hercules, Calif.). Target primers for UL30 (DNA polymerase catalytic subunit) and reference primers for GAPDH were used to measure genome replication. Primer sequences were provided in Alekseev et al., 2014, Invest. Ophthalm. Vis. Sci. 55:706-715). Real time PCR data were processed using the ΔΔC(t) method. […]

Row | Compound | generation of infectious viral particles (plaque assay) [1] | levels of viral proteins (Western blot) [2] | HSV-1 replication in transformed or cancer cell lines ([3]; HeLa, U2OS, H1299, SH-SY5Y) | HSV-1 replication in normal cell types ([3]; hTCEpi, HCE, OKF6, EPC2)
1 | NC(=O)c1ccc2[nH]c(-c3ccc(Oc4ccc(Cl)cc4)cc3)nc2c1 [Chk2 inhibitor II, 2-(4-(4-chlorophenoxy)phenyl)-1H-benzimidazole-5-carboxamide] | reduction | – | – | –
2 | O=c1cc(-c2cccc3c2Sc2ccccc2S3)oc(N2CCOCC2)c1 [KU-55933, 2-(morpholin-4-yl)-6-(thianthren-1-yl)-pyran-4-one] | – | pronounced decrease | little effect | potently suppressed

Reference: US20210023089A1, “Compositions Useful for Treating Herpes Simplex Keratitis, and Methods Using Same” (priority 2013, published 2021)
